System: pS6, IGF-IRβ, Akt, PRAS40, Raptor in Tsc2-sh neurons
Assay: Western blot of PI3K/Akt/mTORC1 signaling components in Tsc2-sh neurons
Format: cell-based, rat
Excerpt: Hsp90 is a molecular chaperone that protects its client proteins from degradation, and many of its substrates are oncogenic proteins (Neckers and Workman, Hsp90 molecular chaperone inhibitors: are we there yet?; Clin Cancer Res 18, 64-76 (2012)). Among these, insulin-growth factor-1 Receptor β (IGF-IRβ), Akt, and Raptor are components of the PI3K/mTOR pathway that have been identified as Hsp90 substrates in non-neuronal cells (Basso et al., Akt forms an intracellular complex with heat shock protein 90 (Hsp90) and Cdc37 and is destabilized by inhibitors of Hsp90 function; J Biol Chem 277, 39858-39866 (2002); Ohji et al., Suppression of the mTOR-raptor signaling pathway by the inhibitor of heat shock protein 90 geldanamycin; J Biochem 139, 129-135 (2006)). To test whether Hsp90 affects mTORC1 activity through regulation of IGF-IRβ, Akt, or Raptor in neurons, the expression of these potential client proteins were examined in Tsc2-knockdown neurons treated with vehicle or with a 7-point dose-response curve at a three-fold dilution of 17-AGG (assay endpoint DIV20).
To investigate whether Hsp90 could function as a chaperone of IGF-IRβ in neurons, wild-type neurons were treated with 17-AGG and then proteasomal degradation was inhibited using bortezomib (BTZ). As expected, Hsp90 inhibition led to reduced IGF-IRβ levels, and this reduction was prevented with BTZ. […] Without wishing to be bound by theory, it is likely that Hsp90 protects IGF-IRβ against proteasomal degradation. To test whether IGF-IRβ protein stability and signaling may represent a potential mechanism by which Hsp90 inhibition reduces mTORC1 activity, IGF-IRβ activation was assessed by autophosphorylation at Tyr1135/1136. Consistent with mTOR-dependent negative feedback on the RTK/Akt pathway (Zhang et al., S6K1 regulates GSK3 under conditions of mTOR-dependent feedback inhibition of Akt; Molecular cell 24, 185-197 (2006)), IGF-IRβ phosphorylation was reduced in the vehicle-treated Tsc2-sh neurons compared to controls (FIGS. 3G, J). […] (FIGS. 3G, J).
Hippocampi and cortexes from 18-day-old rat embryos (Charles River CD1) were isolated under the microscope and collected in Hank's Balanced Salt Solution containing 10 mM MgCl2, 1 mM kynurenic acid, 10 mM HEPES and penicillin/streptomycin. After 5 min dissociation at 37° C. in 30 U/ml of papain, neurons were mechanically triturated and plated in Neurobasal (NB) medium containing B27 supplement, 2 mM L-glutamine, penicillin/streptomycin and primocin (NB/B27). Biochemical analysis was performed on cortical cultures plated at 1×10^6 cells/well onto six-well plates. Immunofluorescent analysis was performed on hippocampal cultures plated at 20×10^3 cells/well onto 96-well plates. All plates were coated with 20 μg/ml poly-D-lysine (PDL).
Protein extracts were lysed in 1×SDS (22 mM Tris-HCl pH 6.8, 4% Glycerol, 0.8% SDS, 1.6% β-mercaptoethanol, bromphenol blue) sample buffer, heated to 95° C. for 5 min and stored frozen. Before being subjected to discontinuous gel electrophoresis, equal amounts of all protein lysates were verified by Coomassie gel staining. For immunoblotting, equal amounts of protein lysates were subjected to SDS-PAGE, transferred to Immobilon-P Millipore and incubated in LI-COR blocking solution at RT for 2 hrs. Primary and secondary antibodies were diluted in LI-COR blocking solution to the appropriate concentrations. LI-COR IRDye secondary antibodies were used. All images were acquired using the LI-COR Odyssey Classic imager and associated Image Studio Lite analysis software (version 5.2.5). Quantification of protein expression was performed by densitometry scans of immunoblots using LI-COR Odyssey imaging system.
Western blot quantifications were performed by protein normalization using GAPDH as loading control. Level of phosphorylated proteins was expressed as the ratio of phosphorylated/total level after GAPDH normalization. […]

[1] = Tsc2-sh neurons, 7-point dose-response, assay endpoint DIV20
[2] = Tsc2-sh neurons, 17-AGG dose of 4 μM, assay endpoint DIV20
[3] = Tsc2-sh neurons, dose curve 24 hrs between DIV19-20

## C=CCNC1=C2C[C@@H](C)C[C@H](OC)[C@H](O)[C@@H](C)/C=C(\C)[C@H](OC(N)=O)[C@@H](OC)C=C/C=C(\C)C(=O)NC(=CC1=O)C2=O [17-AGG, 3 S,5S,6R,7S,8E,10R,11S,12E,14E)-21-(allylamino)-6-hydroxy-5,11-dimethoxy-3,7,9,15-tetramethyl-16,20,22-trioxo-17-azabicyclo[16.3.1]docosa-8,12,14,18,21-pentaen-10-yl] carbamate]
[1]
  Akt levels: no effect
  Raptor levels: no effect
[2]
  pS6 phosphorylation: significantly reduced
  total IGF-IRβ protein level: significantly reduced
[3]
  phosphorylation of Akt: reduced
  phosphorylation of PRAS40: reduced
Tsc2-sh neurons, dose curve, DIV19-20
  phosphorylation of IGF-IRβ receptor (Tyr1135/1136): further reduced
Tsc2 knockdown cultures at DIV13, four days of 17-AGG 5-450 nM
  mTORC1 activation: without any effect

Reference: patent publication US20230218577A1, “USE OF HEAT SHOCK PROTEIN INHIBITORS FOR THE TREATMENT OF NEURODEVELOPMENTAL DISORDERS” (The Children's Medical Center Corporation, priority 2020, published 2023)
